Data published in patent publication US20080176857A1, “4-Piperazinnylthieno[2,3-d]Pyrimidine Compounds as Platelet Aggregation Inhibitors” (priority 2005, published 2008).
Where “and” joins values, the source holds several entries; their conditions need not be identical. Identical values can stand only once.

Target: P2Y12 receptor (Homo sapiens, UniProt Q9H244)
Experiment: [33P]-2MeS-ADP binding to recombinant human P2Y12 membranes (Assay 3)
Parameters: expressed in transfected cells; host or cells: HEK cells
Settings: for IC50 / Ki: HEK cell membranes expressing human P2Y12, competition with 33P 2MeS-ADP; for % Inhibition / inhibition at 10 µM: 10 μM
Description: 3. Human P2Y12 Recombinant Cell Membrane Binding Assay with ^33P 2MeS-ADP.
The ability of a test compound to bind to the P2Y12 receptor was evaluated in a recombinant cell membrane binding assay. In this competitive binding assay, the test compound competed against a radiolabelled agonist for binding to the P2Y12 receptor, expressed on the cell membrane. Inhibition of binding of the labeled material was measured and correlated to the amount and potency of the test compound. Data from this assay are presented in Table F. This binding assay is a modification of the procedure in Takasaki, J. et. al, Mol. Pharmacol., 2001, Vol. 60, pg. 432.
HEK cells were transfected with the pDONR201P2Y12 vector and cultured in MEM with GlutaMAX I, Earle's salts, 25 mM HEPES (Gibco # 42360-032) containing 10% dialyzed FBS (Gibco # 26400-044), 100 μM nonessential amino acids (Gibco # 11140-050), 1 mM sodium pyruvate (Gibco # 11360-070), 0.05% geneticin (Gibco #10131-027), 3 μg/mL blasticidin (Fluka brand from Sigma # 15205), and 0.5 μg/mL puromycin (Sigma # P-8833).
Confluent cells were washed once with cold DPBS (Gibco # 14190-136). Fresh DPBS was added and the cells were scraped and centrifuged at 500×g for 5 minutes at 4° C. The cell pellets were resuspended in TEE buffer (25 mM Tris, 5 mM EDTA, 5 mM EGTA) containing 1 protease inhibitor cocktail tablet (Roche # 1 873 580) per 50 mL (called TEE+Complete) and can be flash frozen at this point.
In one embodiment, frozen cell pellets were used to prepare the membranes. In that embodiment, the frozen cell pellets were thawed on ice. In another embodiment, cell pellets may be used without flash freezing before moving on to the next step.
Cell pellets were resuspended in TEE buffer+Complete and homogenized in a glass dounce for 12 strokes. The cell suspension was centrifuged at 500×g for 5 minutes at 4° C. The supernatant was saved and centrifuged at 20,000×g for 20 minutes at 4° C. This supernatant was discarded and the cell pellet resuspended in TEE buffer+Complete and homogenized in a glass dounce for 12 strokes. This suspension was centrifuged at 20,000×g for 20 minutes at 4° C. and the supernatant discarded. The pellet was resuspended in assay buffer (50 mM Tris, 100 mM NaCl, 1 mM EDTA) containing one protease inhibitor cocktail tablet per 50 mL, and can be flash frozen as 1 mL aliquots at this point.
Dry compounds were diluted as 10 mM DMSO stocks and tested in a seven-point, three-fold dilution series run in triplicate beginning at 10 μM, final concentration. A 1 mM DMSO intermediate stock was made in a dilution plate and from this the seven dilutions were made to 5× the final concentration in assay buffer containing 0.02% BSA.
The plates were incubated at room temperature for 1 hour. The reaction was stopped using a cell harvester to transfer the reaction mixture onto GF/B UniFilter plates (Perkin Elmer # 6005177), and washed three times with wash buffer (50 mM Tris), filtering between each wash. The filter plates were dried for approximately 20 minutes in an oven at 50° C. Back seals were adhered to the filter plates and 25 uL of Microscint 20 scintillation fluid (Perkin Elmer # 6013621) were added. The filter plates were sealed, shaken for 30 minutes, and counted on a Top Count. Data were analyzed using a four-parameter curve fit with a fixed minimum and maximum experimentally defined as the average positive and negative controls on each plate, and with a hill slope equal to one.
The table below presents the IC50, Ki, and percent inhibition values for compounds tested in either washed human platelets membrane binding assay (assay #1 above) or recombinant cell membrane binding assay (Assay #3, above). Example number refers to the compound prepared as described in the example noted in the section Working Examples, above. The highest concentration of candidate compound tested is listed for each experimental run presented. […]

[1] = at highest concentration tested

Sequence of P2Y12 receptor (Q9H244 whole entry): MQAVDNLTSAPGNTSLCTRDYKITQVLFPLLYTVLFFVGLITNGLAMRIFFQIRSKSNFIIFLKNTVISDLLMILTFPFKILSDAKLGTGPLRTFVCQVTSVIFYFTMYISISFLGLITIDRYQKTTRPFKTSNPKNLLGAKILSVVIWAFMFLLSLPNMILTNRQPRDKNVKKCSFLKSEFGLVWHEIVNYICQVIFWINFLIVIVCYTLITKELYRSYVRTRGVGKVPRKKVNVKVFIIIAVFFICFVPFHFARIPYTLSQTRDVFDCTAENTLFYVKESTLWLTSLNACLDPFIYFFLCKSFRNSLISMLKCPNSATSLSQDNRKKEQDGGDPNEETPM

Structure (SMILES) | IC50 | Ki | inhibition at 1 µM (at highest concentration tested, 1 μM) | % Inhibition [1] | inhibition at 10 µM [1]
CCc1cc2c(N3CCN(C(=O)Cc4ccccc4)CC3)nc(SC(C)C(=O)NCC(=O)O)nc2s1 (centres unmarked) [Example 11, N-[2-({6-Ethyl-4-[4-(phenylacetyl)piperazin-1-yl]thieno[2,3-d]pyrimidin-2-yl}thio)propanoyl]glycine] | 330 nM and 230 nM and 270 nM and 328 nM | 190 nM and 130 nM and 160 nM and 189 nM | 81% | 92.50% and 88.81% | 90.5%
CCc1cc2c(N3CCN(C(=O)c4cccc(C)c4)CC3)nc(SCC(=O)OC)nc2s1 [Example 61, Methyl ({6-ethyl-4-[4-(3-methylbenzoyl)piperazin-1-yl]thieno[2,3-d]pyrimidin-2-yl}thio)acetate] | 1910 nM | 1240 nM | – | – | 78.5%
CCc1cc2c(N3CCN(C(=O)Cc4ccccc4)CC3)nc(SCCO)nc2s1 [Example 87, 2-({6-ethyl-4-[4-(phenylacetyl)piperazin-1-yl]thieno[2,3-d]pyrimidin-2-yl}thio)ethanol] | 570 nM and 590 nM and 200 nM and 320 nM | 310 nM and 337 nM and 110 nM and 180 nM | – | – | –
CCc1cc2c(N3CCN(C(=O)C4COc5ccccc5O4)CC3)nc(SCC(=O)OC)nc2s1 (centres unmarked) [Example 38, Methyl ({4-[4-(2,3-dihydro-1,4-benzodioxin-2-ylcarbonyl)piperazin-1-yl]-6-ethylthieno[2,3-d]pyrimidin-2-yl}thio)acetate] | 600 nM | 400 nM | – | – | 77.2%
CCc1cc2c(N3CCN(C(=O)c4ccc(C)cc4)CC3)nc(SCC(=O)OC)nc2s1 [Example 45, Methyl ({6-ethyl-4-[4-(4-methylbenzoyl)piperazin-1-yl]thieno[2,3-d]pyrimidin-2-yl}thio)acetate] | > 10000 nM | > 6700 nM | – | – | 42.5%
CCc1cc2c(N3CCN(C(=O)c4ccc(C(F)(F)F)cc4)CC3)nc(SCC(=O)OC)nc2s1 [Example 46, Methyl [(6-ethyl-4-{4-[4-(trifluoromethyl)benzoyl]piperazin-1-yl}thieno[2,3-d]pyrimidin-2-yl)thio]acetate] | > 10000 nM | > 6700 nM | – | – | 41.8%
CCc1cc2c(N3CCN(C(=O)CCCCC(=O)OC)CC3)nc(SCC(=O)OC)nc2s1 [Example 43, Methyl 6-(4-{6-ethyl-2-[(2-methoxy-2-oxoethyl)thio]thieno[2,3-d]pyrimidin-4-yl}piperazin-1-yl)-6-oxohexanoate] | 2380 nM | 1580 nM | – | – | 78.2%
CCc1cc2c(N3CCN(C(=O)c4cccc(C#N)c4)CC3)nc(SCC(=O)OC)nc2s1 [Example 64, Methyl ({4-[4-(3-cyanobenzoyl)piperazin-1-yl]-6-ethylthieno[2,3-d]pyrimidin-2-yl}thio)acetate] | 157 nM and 417 nM and 330 nM | 94 nM and 252 nM and 212 nM | – | 81.22% and 90.29% | 91.3%
CCc1cc2c(N3CCN(C(=O)CCC4CCCC4)CC3)nc(SCC(=O)OC)nc2s1 [Example 40, Methyl ({4-[4-(3-cyclopentylpropanoyl)piperazin-1-yl]-6-ethylthieno[2,3-d]pyrimidin-2-yl}thio)acetate] | 4150 nM | 2760 nM | – | – | 59%
CCc1cc2c(N3CCN(C(=O)c4c(-c5ccc(OC)cc5)noc4C)CC3)nc(SCC(=O)OC)nc2s1 [Example 68, Methyl {[6-ethyl-4-(4-{[3-(4-methoxyphenyl)-5-methylisoxazol-4-yl]carbonyl}piperazin-1-yl)thieno[2,3-d]pyrimidin-2-yl]thio}acetate] | 6420 nM | 3880 nM | – | – | 96.4%
CCc1cc2c(N3CCN(C(=O)Cc4ccccc4)CC3)nc(SCC(N)=O)nc2s1 [Example 24, 2-({6-Ethyl-4-[4-(phenylacetyl)piperazin-1-yl]thieno[2,3-d]pyrimidin-2-yl}thio)acetamide] | 190 nM and 240 nM | 110 nM and 130 nM | – | 92.16% | 83.1%
CCc1cc2c(N3CCN(C(=O)c4ccc(C#N)cc4)CC3)nc(SCC(=O)OC)nc2s1 [Example 52, Methyl ({4-[4-(4-cyanobenzoyl)piperazin-1-yl]-6-ethylthieno[2,3-d]pyrimidin-2-yl}thio)acetate] | 2670 nM | 1780 nM | – | – | 67.7%
CCc1cc2c(N3CCN(C(=O)c4ccc(-n5cccn5)cc4)CC3)nc(SCC(=O)OC)nc2s1 [Example 48, Methyl [(6-ethyl-4-{4-[4-(1H-pyrazol-1-yl)benzoyl]piperazin-1-yl}thieno[2,3-d]pyrimidin-2-yl)thio]acetate] | 190 nM | 130 nM | – | – | 95.8%
CCc1cc2c(N3CCN(C(=O)c4nnc(-c5ccccc5)o4)CC3)nc(SCC(=O)OC)nc2s1 [Example 70, Methyl [(6-ethyl-4-{4-[(5-phenyl-1,3,4-oxadiazol-2-yl)carbonyl]piperazin-1-yl}thieno[2,3-d]pyrimidin-2-yl)thio]acetate] | 144 nM | 89 nM | – | – | 82.1%
CCc1cc2c(N3CCN(C(=O)c4ccc(OC)cc4)CC3)nc(SCC(=O)OC)nc2s1 [Example 59, Methyl ({6-ethyl-4-[4-(4-methoxybenzoyl)piperazin-1-yl]thieno[2,3-d]pyrimidin-2-yl}thio)acetate] | 2970 nM | 1480 nM | – | – | 67.1%
CCc1cc2c(N3CCN(C(=O)c4ccc(-c5csnn5)cc4)CC3)nc(SCC(=O)OC)nc2s1 [Example 66, Methyl [(6-ethyl-4-{4-[4-(1,2,3-thiadiazol-4-yl)benzoyl]piperazin-1-yl}thieno[2,3-d]pyrimidin-2-yl)thio]acetate] | 450 nM | 270 nM | – | – | 74.6%
CCc1cc2c(N3CCN(C(=O)c4ccc(-c5ccccc5)cc4)CC3)nc(SCCO)nc2s1 [Example 32, 2-({4-[4-(1′-Biphenyl-4-ylcarbonyl)piperazin-1-yl]-6-ethylthieno[2,3-d]pyrimidin-2-yl}thio)ethanol] | 52 nM | 29 nM | – | – | 93.2%
CCc1cc2c(N3CCN(C(=O)CCOC)CC3)nc(SCC(=O)OC)nc2s1 [Example 58, Methyl ({6-ethyl-4-[4-(3-methoxypropanoyl)piperazin-1-yl]thieno[2,3-d]pyrimidin-2-yl}thio)acetate] | 5250 nM | 2620 nM | – | – | 53.6%
CCc1cc2c(N3CCN(C(=O)c4ccc(C(N)=O)cc4)CC3)nc(SCC(=O)OC)nc2s1 [Example 79, Methyl [(4-{4-[4-(aminocarbonyl)benzoyl]piperazin-1-yl}-6-ethylthieno[2,3-d]pyrimidin-2-yl)thio]acetate] | 8700 nM | 5050 nM | – | – | 47.7%
CCc1cc2c(N3CCN(C(=O)Cc4ccccc4)CC3)nc(SCC(=O)Nc3ccc4ccccc4c3)nc2s1 [Example 9, 2-({6-Ethyl-4-[4-(phenylacetyl)piperazin-1-yl]thieno[2,3-d]pyrimidin-2-yl}thio)-N-2-naphthylacetamide] | > 10000 nM and 9300 nM | > 5900 nM and 5400 nM | – | – | –
CCc1cc2c(N3CCN(C(=O)/C=C/c4ccccc4)CC3)nc(SCC(=O)OC)nc2s1 [Example 47, Methyl [(6-ethyl-4-{4-[(2E)-3-phenylprop-2-enoyl]piperazin-1-yl}thieno[2,3-d]pyrimidin-2-yl)thio]acetate] | 5440 nM | 3630 nM | – | – | 48.6%
CCc1cc2c(N3CCN(C(=O)c4ccc5ccoc5c4)CC3)nc(SCC(=O)OC)nc2s1 [Example 65, Methyl ({4-[4-(1-benzofuran-6-ylcarbonyl)piperazin-1-yl]-6-ethylthieno[2,3-d]pyrimidin-2-yl}thio)acetate] | 620 nM | 370 nM | – | – | 81%
